From US5914235A (Eli Lilly and Company, priority 1997, dated 1999)
Several values for one entry are separate records, joined by “and”; a condition that tells them apart may be missing. Equal values may be shown once. Read-outs that look alike come from different tables or passages of the source. Values belong to the molecule of their own block, whether it stands above or below them.

Assays:
MAO = type: biochemical, human
Description: MAO activity was measured with [^14 C]tyramine as substrate using a modification of the method by Yu [P. H. YU, Neuromethods, Neurotransmitter Enzymes, A. A. Boulton, G. B. Baker and P. H. Yu, 235-272, Humana Press, Clifton, N.J. (1986))]. Membranes were incubated with [^14 C]tyramine (0.5 mM) at 21° C., pH 7.4 for 40 min. Enzyme activity was stopped by lowering pH to 1.0 with 2 M HCl. The radiolabeled products of MAO degradation (p-hydroxyphenylacetic acid and p-hydroxymandelic acid) were then extracted into toluene ethyl acetate by vortexing for 15 min and aliquots of the organic phase counted. Extraction was enhanced by the addition of a 1 mg/ml carrier concentration of both products and saturating concentration of NaCl.
(§1) Binding data were calculated as fmol bound ligand/mg protein. Protein was determined by the Lowry method. Binding constants were calculated by nonlinear curve fitting (Lundon Software) and the fit to a one or two site model was tested using two-way ANOVA. Relative MAO activity was calculated as CPM/mg protein/min or moles/mg protein/min.
Data are mean±SEM of 3 experiments. […] The data is depicted in FIG. 5.
Data are expressed as percent of maximum binding or MAO activity and represent the mean±SEM of 3 experiments. […] The data is depicted in FIG. 6.

rat liver MAO B = details: cited from earlier work
rat liver MAO A = details: cited from earlier work
[1] = molecular target: T1, [^3 H]BFI binding sites (I2 binding site) (Homo sapiens, UniProt P27338); test: Ligand competition for [^3 H]BFI binding in human cortex; details: for Affinity in competition for [^3 H]BFI binding: human brain
T1 construct: Frozen sections of human cortex (Brodman's areas 8,9,10), human medulla; from tissue; host or cells: P2 membranes of human cortex (Brodmann areas 8, 9, 10) and human medulla (NRL)
T1 sequence (P27338 2-520 limits assumed): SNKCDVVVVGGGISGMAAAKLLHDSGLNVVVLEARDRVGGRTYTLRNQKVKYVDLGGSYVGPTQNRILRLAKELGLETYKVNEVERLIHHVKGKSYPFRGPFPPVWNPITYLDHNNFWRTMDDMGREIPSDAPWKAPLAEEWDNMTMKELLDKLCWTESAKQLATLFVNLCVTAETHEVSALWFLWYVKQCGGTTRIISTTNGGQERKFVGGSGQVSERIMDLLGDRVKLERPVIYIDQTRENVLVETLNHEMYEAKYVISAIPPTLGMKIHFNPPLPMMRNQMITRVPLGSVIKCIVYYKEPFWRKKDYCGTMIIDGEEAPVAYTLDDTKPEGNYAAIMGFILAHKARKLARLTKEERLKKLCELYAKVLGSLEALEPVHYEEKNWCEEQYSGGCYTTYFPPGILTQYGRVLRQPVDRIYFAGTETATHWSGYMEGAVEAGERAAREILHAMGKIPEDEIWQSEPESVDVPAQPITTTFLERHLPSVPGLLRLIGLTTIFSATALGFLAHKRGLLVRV
Description: (§2) Membrane fractions were isolated at 4° C. using differential centrifugation as follows: Homogenates were centrifuged at 500×g to remove nuclei and cell debris followed by 45,000×g to obtain the P2 membrane fraction. The P2 pellet was washed twice with 50 mM Tris-HCl buffer. Between washes the pellet resuspension was incubated for 30 min at 25° C. to allow dissociation of endogenous ligands from their receptors. The final pellet was resuspended in 50 mM Tris-HCl, pH 7.5, and stored at -70° C. until used.
as §1

I2 sites = details: read-out: KD of [^3 H]BFI binding; rabbit cortex, previously reported; cited from earlier work
[2] = molecular target: [^3 H]BFI binding sites (I2 binding site); test: Ligand competition for [^3 H]BFI binding in human cortex; details: human cortex, 8 nM [^3 H]BFI, two-site fit
Description: as §2, §1

Structure (SMILES): N[C@@H]1C[C@H]1c1ccccc1 (relative stereo) [TCP, Tranylcypromine]
- Potentiation of BFI binding in guinea pig tissues by TCP (BFI binding sites): not seen
- Inhibition of MAO activity (MAO; 1 μM TCP preincubation (maximal potentiation of binding)): 80%
- TCP concentration of maximal inhibition of MAO activity (MAO; 40 min preincubation, washed): 3 µM
- Maximal inhibition of MAO activity (MAO; TCP concentrations >3 μM): 95%

Structure (SMILES): c1ccc2oc(C3=NCCN3)cc2c1 [BFI, 2-(2-benzofuranyl)-2-imidazoline]
- Inhibition of rat liver MAO B (rat liver MAO B): inhibits
- Inhibition of rat liver MAO A (rat liver MAO A): inhibits

- Ki [1]: 9400 ± 1800 nM
- Affinity in competition for [^3 H]BFI binding [1]: low affinity
Structure (SMILES): COC1(C2=NCCN2)COc2ccccc2O1 (stereo not drawn) [RX821002]

Structure (SMILES): c1ccc2oc(C3=NCCN3)cc2c1 [[^3 H]BFI, 2-(2-benzofuranyl)-2-imidazoline]
- Kd (I2 sites): 2.7 nM

Structure (SMILES): N=C(N)NC(=O)c1nc(Cl)c(N)nc1N [amiloride]
- Affinity in competition for [^3 H]BFI binding [1]: low affinity

- Ki [1]: 13 ± 4.5 nM
- Affinity in competition for [^3 H]BFI binding [1]: high affinity
Structure (SMILES): c1ccc(C2CC2)c(OCC2=NCCN2)c1 [cirazoline]

Structure (SMILES): Clc1cccc(Cl)c1N=C1NCCN1 [clonidine]
- Ki ([2]; read-out: Ki for competition of [^3 H]BFI binding, two-site model, first (high-affinity) value): 73.4 ± 24.6 nM
- Ki ([2]; read-out: Ki for competition of [^3 H]BFI binding, two-site model, second (low-affinity) value): 86300 ± 11100 nM
- Affinity in competition for [^3 H]BFI binding [1]: low affinity

Structure (SMILES): N=C(N)N/N=C/c1c(Cl)cccc1Cl [guanabenz]
- Ki [1]: 72.5 ± 24 nM
- Affinity in competition for [^3 H]BFI binding [1]: high affinity

- Ki [1]: 80.4 ± 17 nM
Structure (SMILES): c1ccc2c(c1)OCC(C1=NCCN1)O2 (stereo not drawn) [idazoxan]
- Inhibition of rat liver MAO A (rat liver MAO A): not

- Affinity in competition for [^3 H]BFI binding [1]: low affinity
Structure (SMILES): COc1nc(C)nc(Cl)c1N=C1NCCN1 [moxonidine]

Structure (SMILES): C#CCN(C)Cc1ccccc1 [pargyline]
- Inhibition of basal MAO activity (MAO; preincubation with 10 μM pargyline, all durations (10, 30, 60 min)): > 90% and 90%
